Where two headings read alike, the source gives them in different places. Starred links: 1 amine or outer side, 2 acyl side, 3 side chain; linkers in the order of their positions; H or OH if unused. Positions of bridges follow the written chain, without caps; N, C: chain ends. Non-standard residues stand in square brackets, D forms with d. Residues, ends and D or L forms follow the SMILES beside them. Pen = CC(C)(S)[C@H](N)C(=O)O; hCys = N[C@@H](CCS)C(=O)O; Dab = NCC[C@H](N)C(=O)O; Dap = NC[C@H](N)C(=O)O; X1 = O=C(C[*:2])[*:1]; X2 = O=C(C[*:1])[*:2]
Key:
[1] = Evaluation of molecule stability (alkali treatment, residual rate by LC/MS); type: physicochemical; settings: for Stability (molecule stability, residual rate of the cyclic peptide rank): alkali treatment, residual rate by LC/MS; for Performance evaluation: Stability (residual rate of cyclic peptide after alkali treatment): 500 μM peptide aqueous solution plus equivalent of 1 M sodium hydroxide, 15° C., 3 hours, LC/MS peak area
Outline: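 500 μM aqueous cyclic peptide mixed with an equal volume of 1 M NaOH and held 3 h at 15 °C. Residual rate is total LC/MS peak area after treatment relative to untreated (100%), using a C18 column, pH 3 ammonium formate/acetonitrile gradient, 45 °C, ESI±.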

[2] = target: human integrin αvβ5 (Homo sapiens, UniProt P06756+P18084); experiment: Evaluation of integrin binding property (surface plasmon resonance, Biacore 3000, immobilized cyclic peptide)
Outline: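 SPR with cyclic peptide amine-coupled via EDC/NHS to a CM5 chip, blank channel as reference. Integrin αvβ5 at 30, 100, 300 and 1,000 nM injected 10 min at 25 °C in HEPES buffer pH 7.4 with 5 mM MgCl2, 30 min buffer flow, EDTA regeneration; Kd from reference-subtracted signals, graded by category.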

[3] = surface plasmon resonance, immobilized cyclic peptide, human integrin αvβ5, read-out: Binding activity (integrin binding property, dissociation constant rank)
[4] = SPR, 25° C., HEPES buffer with 5 mM magnesium chloride, integrin 30-1,000 nM, read-out: Performance evaluation: Binding activity (dissociation constant between the cyclic peptide and human integrin αvβ5)

Chain of human integrin αvβ5 (P06756 31-1048): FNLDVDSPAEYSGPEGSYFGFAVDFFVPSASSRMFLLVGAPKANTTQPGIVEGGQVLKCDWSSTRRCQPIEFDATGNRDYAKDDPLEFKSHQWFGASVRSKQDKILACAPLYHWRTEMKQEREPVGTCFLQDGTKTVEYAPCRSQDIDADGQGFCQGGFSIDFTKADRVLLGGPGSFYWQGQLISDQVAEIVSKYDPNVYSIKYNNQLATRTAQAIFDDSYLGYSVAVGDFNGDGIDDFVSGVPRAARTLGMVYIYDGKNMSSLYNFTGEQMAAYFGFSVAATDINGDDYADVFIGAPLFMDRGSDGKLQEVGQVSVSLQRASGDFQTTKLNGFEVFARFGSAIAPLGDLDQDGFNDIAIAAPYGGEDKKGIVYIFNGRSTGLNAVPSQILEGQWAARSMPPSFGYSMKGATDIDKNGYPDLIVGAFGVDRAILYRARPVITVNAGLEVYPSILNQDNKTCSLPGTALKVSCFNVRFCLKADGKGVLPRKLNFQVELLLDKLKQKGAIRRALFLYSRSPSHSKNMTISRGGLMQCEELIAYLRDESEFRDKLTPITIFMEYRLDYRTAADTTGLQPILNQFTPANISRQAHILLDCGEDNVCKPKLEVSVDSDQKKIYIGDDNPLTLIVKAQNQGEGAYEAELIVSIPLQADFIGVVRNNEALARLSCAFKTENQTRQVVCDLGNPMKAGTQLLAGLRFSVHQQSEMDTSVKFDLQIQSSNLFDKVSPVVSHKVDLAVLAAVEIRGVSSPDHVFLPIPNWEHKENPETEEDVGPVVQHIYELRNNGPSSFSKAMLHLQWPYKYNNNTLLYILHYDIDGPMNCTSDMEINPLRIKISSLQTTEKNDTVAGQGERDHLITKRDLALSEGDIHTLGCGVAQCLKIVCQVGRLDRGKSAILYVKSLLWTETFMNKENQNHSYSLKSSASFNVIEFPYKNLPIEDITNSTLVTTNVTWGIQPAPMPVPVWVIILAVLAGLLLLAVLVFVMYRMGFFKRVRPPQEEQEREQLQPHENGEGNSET
Chain of human integrin αvβ5 (P18084 24-799): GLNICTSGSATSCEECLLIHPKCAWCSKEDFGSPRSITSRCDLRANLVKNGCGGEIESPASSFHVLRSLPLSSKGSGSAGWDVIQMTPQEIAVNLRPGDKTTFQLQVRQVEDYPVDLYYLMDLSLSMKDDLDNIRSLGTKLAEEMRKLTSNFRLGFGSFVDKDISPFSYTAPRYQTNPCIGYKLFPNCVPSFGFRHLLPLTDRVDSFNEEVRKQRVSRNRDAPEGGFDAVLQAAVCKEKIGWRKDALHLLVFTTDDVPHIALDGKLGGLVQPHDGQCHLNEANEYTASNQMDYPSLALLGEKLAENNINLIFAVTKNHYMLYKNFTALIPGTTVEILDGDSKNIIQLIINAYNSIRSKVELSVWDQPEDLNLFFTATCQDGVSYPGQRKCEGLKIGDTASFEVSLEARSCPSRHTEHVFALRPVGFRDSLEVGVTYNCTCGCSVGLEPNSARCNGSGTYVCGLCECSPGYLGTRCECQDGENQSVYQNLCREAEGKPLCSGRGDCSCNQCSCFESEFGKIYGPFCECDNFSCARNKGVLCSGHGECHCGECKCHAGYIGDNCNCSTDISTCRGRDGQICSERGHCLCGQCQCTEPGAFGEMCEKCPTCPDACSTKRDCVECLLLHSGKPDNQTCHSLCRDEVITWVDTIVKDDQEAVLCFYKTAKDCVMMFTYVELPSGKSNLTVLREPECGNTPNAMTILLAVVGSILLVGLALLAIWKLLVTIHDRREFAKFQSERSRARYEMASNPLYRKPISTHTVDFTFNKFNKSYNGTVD

Structure (SMILES)	Stability (molecule stability, residual rate of the cyclic peptide rank) [1]	Kd [2, 3] [nM]	Performance evaluation: Stability (residual rate of cyclic peptide after alkali treatment) [1]	Kd [2, 4] [nM]	molecule stability (in words) ([1]; summary of Table 9 to Table 13)
CC[C@H](C)[C@@H]1NC(=O)[C@@H](NC(=O)CNC(=O)[C@H](CCCCN)NC(=O)[C@H](CCCCN)NC(=O)[C@@H](N)CCCCN)CCNC(=O)CSC(C)(C)[C@@H](C(=O)N[C@@H](C)C(=O)O)NC(=O)[C@H](CCCNC(=N)N)NC(=O)[C@H](Cc2ccccc2)NC(=O)[C@H]([C@@H](C)O)NC(=O)[C@H](CC(=O)O)NC(=O)CNC(=O)[C@H](CCCNC(=N)N)NC(=O)[C@@H]2CCCN2C1=O [Cyclic peptide 133, KKKG(Dab(acetyl))IPRGDTFR-(Pen)-A] (H-KKKG[Dab]IPRGDTFR[Pen]A-OH; linker 5-14 via X1)	A (The residual rate of the cyclic peptide is 70% or more.)	50 to 100	–	–	–
CC(C)[C@@H]1NC(=O)[C@@H](NC(=O)[C@H](CCCCN)NC(=O)[C@H](CCCCN)NC(=O)[C@@H](N)CCCCN)CCNC(=O)CSC[C@@H](C(=O)O)NC(=O)[C@H](Cc2ccccc2)NC(=O)[C@H](CC(N)=O)NC(=O)[C@H](CC(=O)O)NC(=O)CNC(=O)[C@H](CCCNC(=N)N)NC(=O)[C@@H]2CCCN2C1=O [Cyclic peptide 143, KKK(Dab(acetyl))VPRGDNF(C)] (H-KKK[Dab]VPRGDNFC-OH; linker 4-12 via X1)	C (The residual rate of the cyclic peptide is 30% or more and less than 50%.)	< 50	–	–	–
CC[C@H](C)[C@@H]1NC(=O)[C@@H](NC(=O)[C@H](CCCCN)NC(=O)[C@H](CCCCN)NC(=O)[C@@H](N)CCCCN)CCSCC(=O)NCC[C@@H](C(=O)N[C@@H](C)C(=O)O)NC(=O)[C@H](C)NC(=O)[C@H](Cc2ccccc2)NC(=O)[C@H](CO)NC(=O)[C@H](CC(=O)O)NC(=O)CNC(=O)[C@H](CCCNC(=N)N)NC(=O)[C@@H]2CCCN2C1=O [Cyclic peptide 163, KKK-(Hcy)-IPRGDSFA(Dab(acetyl))A] (H-KKK[hCys]IPRGDSFA[Dab]A-OH; linker 4-13 via X2)	A (The residual rate of the cyclic peptide is 70% or more.)	< 50	–	–	–
CC[C@H](C)[C@@H]1NC(=O)[C@@H](NC(=O)CNC(=O)[C@H](CCCCN)NC(=O)[C@H](CCCCN)NC(=O)[C@@H](N)CCCCN)CCSCC(=O)NCC[C@@H](C(=O)O)NC(=O)[C@H](CCCNC(=N)N)NC(=O)[C@H](Cc2ccccc2)NC(=O)[C@H]([C@@H](C)O)NC(=O)[C@H](CC(=O)O)NC(=O)CNC(=O)[C@H](CCCNC(=N)N)NC(=O)[C@@H]2CCCN2C1=O [Cyclic peptide 59, KKKG-(Hcy)-IPRGDTFR(Dab(acetyl))] (H-KKKG[hCys]IPRGDTFR[Dab]-OH; linker 5-14 via X2)	–	–	A (The residual rate of the cyclic peptide is 70% or more.)	< 50	–
CC(C)C[C@@H]1NC(=O)[C@@H](NC(=O)CNC(=O)[C@H](CCCCN)NC(=O)[C@H](CCCCN)NC(=O)[C@@H](N)CCCCN)CCSCC(=O)NCC[C@@H](C(=O)N[C@@H](C)C(=O)O)NC(=O)[C@H](CCCNC(=N)N)NC(=O)[C@H](Cc2ccccc2)NC(=O)[C@H]([C@@H](C)O)NC(=O)[C@H](CC(=O)O)NC(=O)CNC(=O)[C@H](CCCNC(=N)N)NC(=O)[C@@H]2CCCN2C1=O [Cyclic peptide 71, KKKG-(Hcy)-LPRGDTFR(Dab(acetyl))A] (H-KKKG[hCys]LPRGDTFR[Dab]A-OH; linker 5-14 via X2)	–	–	A (The residual rate of the cyclic peptide is 70% or more.)	< 50	–
CC(C)[C@@H]1NC(=O)[C@@H](NC(=O)[C@H](CCCCN)NC(=O)[C@H](CCCCN)NC(=O)[C@@H](N)CCCCN)CCNC(=O)CSC[C@@H](C(=O)O)NC(=O)[C@H](C)NC(=O)[C@H](Cc2ccccc2)NC(=O)[C@H]([C@@H](C)O)NC(=O)[C@H](CC(=O)O)NC(=O)CNC(=O)[C@H](CCCNC(=N)N)NC(=O)[C@@H]2CCCN2C1=O [Cyclic peptide 141, KKK(Dab(acetyl))VPRGDTFA(C)] (H-KKK[Dab]VPRGDTFAC-OH; linker 4-13 via X1)	C (The residual rate of the cyclic peptide is 30% or more and less than 50%.)	< 50	–	–	–
C[C@H](NC(=O)[C@H](CCCCN)NC(=O)[C@H](CCCCN)NC(=O)[C@@H](N)CCCCN)C(=O)N[C@H]1CCSCC(=O)NCC[C@@H](C(=O)N[C@@H](CCC(=O)O)C(=O)O)NC(=O)[C@H](CCCNC(=N)N)NC(=O)[C@H](Cc2ccc(O)cc2)NC(=O)[C@H](CC(N)=O)NC(=O)[C@H](CC(=O)O)NC(=O)CNC(=O)[C@H](CCCNC(=N)N)NC(=O)[C@@H]2CCCN2C(=O)[C@H](CCC(=O)O)NC1=O [Cyclic peptide 43, KKKA-(Hcy)-EPRGDNYR(Dab(acetyl))E] (H-KKKA[hCys]EPRGDNYR[Dab]E-OH; linker 5-14 via X2)	–	–	A (The residual rate of the cyclic peptide is 70% or more.)	50 to 100	–
CC[C@H](C)[C@@H]1NC(=O)[C@@H](NC(=O)[C@H](C)N)CCSCC(=O)NCC[C@@H](C(=O)N[C@@H](C)C(=O)N[C@@H](CCCCN)C(=O)N[C@@H](CCCCN)C(=O)N[C@@H](CCCCN)C(=O)O)NC(=O)[C@H](C)NC(=O)[C@H](Cc2ccccc2)NC(=O)[C@H](CO)NC(=O)[C@H](CC(=O)O)NC(=O)CNC(=O)[C@H](CCCNC(=N)N)NC(=O)[C@@H]2CCCN2C1=O [Cyclic peptide 100, A-(Hcy)-IPRGDSFA(Dab(acetyl))AKKK] (H-A[hCys]IPRGDSFA[Dab]AKKK-OH; linker 2-11 via X2)	–	–	A (The residual rate of the cyclic peptide is 70% or more.)	< 50	–
CC[C@H](C)[C@@H]1NC(=O)[C@H](C)NC(=O)[C@@H](NC(=O)CNC(=O)[C@H](CCCCN)NC(=O)[C@H](CCCCN)NC(=O)[C@@H](N)CCCCN)CCSCC(=O)NCC[C@@H](C(=O)N[C@@H](C)C(=O)O)NC(=O)[C@H](C)NC(=O)[C@H](CCCNC(=N)N)NC(=O)[C@H](Cc2ccccc2)NC(=O)[C@H](CC(N)=O)NC(=O)[C@H](CC(=O)O)NC(=O)CNC(=O)[C@H](CCCNC(=N)N)NC(=O)[C@@H]2CCCN2C1=O [Cyclic peptide 20, KKKG-(Hcy)-AIPRGDNFRA(Dab(acetyl))A] (H-KKKG[hCys]AIPRGDNFRA[Dab]A-OH; linker 5-16 via X2)	–	–	A (The residual rate of the cyclic peptide is 70% or more.)	50 to 100	–
C[C@H](NC(=O)[C@@H]1CCNC(=O)CSCC[C@H](NC(=O)[C@H](CCCCN)NC(=O)[C@H](CCCCN)NC(=O)[C@@H](N)CCCCN)C(=O)N[C@@H](CCC(=O)O)C(=O)N2CCC[C@H]2C(=O)N[C@@H](CCCNC(=N)N)C(=O)NCC(=O)N[C@@H](CC(=O)O)C(=O)N[C@@H](CC(N)=O)C(=O)N[C@@H](Cc2ccccc2)C(=O)N[C@@H](CCCNC(=N)N)C(=O)N1)C(=O)O [Cyclic peptide 23, KKK-(Hcy)-EPRGDNFR(Dab(acetyl))A] (H-KKK[hCys]EPRGDNFR[Dab]A-OH; linker 4-13 via X2)	–	–	A (The residual rate of the cyclic peptide is 70% or more.)	< 50	–
CC[C@H](C)[C@@H]1NC(=O)[C@@H](NC(=O)[C@H](CCCCN)NC(=O)[C@H](CCCCN)NC(=O)[C@@H](N)CCCCN)CCSCC(=O)NCC[C@@H](C(=O)O)NC(=O)[C@H](CCCNC(=N)N)NC(=O)[C@H](Cc2ccccc2)NC(=O)[C@H](CC(N)=O)NC(=O)[C@H](CC(=O)O)NC(=O)CNC(=O)[C@H](CCCNC(=N)N)NC(=O)[C@@H]2CCCN2C1=O [Cyclic peptide 11, KKK-(Hcy)-IPRGDNFR(Dab(acetyl))] (H-KKK[hCys]IPRGDNFR[Dab]-OH; linker 4-13 via X2)	–	–	A (The residual rate of the cyclic peptide is 70% or more.)	< 50	–
N=C(N)NCCC[C@@H]1NC(=O)[C@H](Cc2ccc(O)cc2)NC(=O)[C@H](CC(N)=O)NC(=O)[C@H](CC(=O)O)NC(=O)CNC(=O)[C@H](CCCNC(=N)N)NC(=O)[C@@H]2CCCN2C(=O)[C@H](CCC(=O)O)NC(=O)[C@@H](NC(=O)[C@H](CCCCN)NC(=O)[C@H](CCCCN)NC(=O)[C@@H](N)CCCCN)CNC(=O)CSC[C@@H](C(=O)O)NC1=O [Cyclic peptide 167, KKK(Dap(acetyl))EPRGDNYR(C), reference compound] (H-KKK[Dap]EPRGDNYRC-OH; linker 4-13 via X1)	D (The residual rate of the cyclic peptide is less than 30%.)	50 to 100	–	–	a practically sufficient molecule stability could be obtained
CC[C@H](C)[C@@H]1NC(=O)[C@@H](NC(=O)[C@H](CCCCN)NC(=O)[C@H](CCCCN)NC(=O)[C@@H](N)CCCCN)CNC(=O)CSCC[C@@H](C(=O)O)NC(=O)[C@H](CCCNC(=N)N)NC(=O)[C@H](Cc2ccccc2)NC(=O)[C@H](CC(N)=O)NC(=O)[C@H](CC(=O)O)NC(=O)CNC(=O)[C@H](CCCNC(=N)N)NC(=O)[C@@H]2CCCN2C1=O [Cyclic peptide 12, KKK(Dap(acetyl))IPRGDNFR-(Hcy)] (H-KKK[Dap]IPRGDNFR[hCys]-OH; linker 4-13 via X1)	–	–	B (The residual rate of the cyclic peptide is 50% or more and less than 70%.)	50 to 100	–

— patent US12673975B2, “Cyclic peptide, cell scaffold material, cell separating material, and medium” (FUJIFILM Corporation, priority 2019, dated 2026)
